Data as given in paper PMC6886544.

Legend:
[1] = test system: EGFR and downstream cascade phosphorylation in H1975 cells; assay: Western blot analysis in H1975 cells; type: cell-based; details: 1 h inhibitor then EGF stimulation
Experimental: and incubated at 37 °C and 5% CO2. On day 2 cells were starved over night with media containing 0.5% FBS to be incubated on day 3 for 1 h with EGFR inhibitors following an additional 30 min of EGF stimulation at 50 ng/mL. The media was discarded and cells were washed once with DPBS
1x. Using 100 μL per well of lysis buffer, cells were then scraped off and lysed while rotating (Stuart Scientific, Staffordshire, UK) for 1 h at 4 °C. […] Supernatant was transferred into new tube and protein concentrations were determined with the Bio-Rad Protein Assay (Bio-Rad Laboratories, Hercules, CA). […]
captured and quantified using a FUJI LAS3000 system with Science Lab 2001 ImageGauge 4.0 software (Fujifilm Medial Systems, Stamford CT, USA). […]
glycerol, 1 mM TCEP, pH 8) on ice for 1 h. We analyzed the aliquots by ESI-MS using an Thermo Fisher Scientific Dionex UltiMate 3000 HPLC system connected to a Thermo Fisher Scientific Velos Pro (2d ion trap). Therefore, 5 μL of sample was injected and separated using a Vydac 214TP C4 5 μm column (150 mm x 2.1 mm) starting at 20% of solvent B for 5 minutes followed by a gradient up to 90% of solvent B over 14 min with a flow rate of 210 μL/min with 0.1% TFA in water as solvent A and 0.1% TFA in MeCN as solvent B. A mass range of 700 to 2000 m/z was scanned and raw data was deconvoluted and analyzed with MagTran software (Z.Q. Zhang, A.G. […]

BLK = BLK (Homo sapiens, UniProt P51451); assay: SelectScreen kinase profiling, BLK; type: biochemical; details: mean ± SD of one measurement in duplicates
Experimental: (§1) Kinase profiling of compound 17a at a concentration of 1 µM generated with the SelectScreen® Profiling Service from Life Technologies.
(§2) Figure S2. Kinase profiling of compound 17a, Illustration as waterfall plot. 9 Kinases harboring a Cysteine isostructural to Cys797 in EGFR are highlighted
(§3) Kinase % inhibition Kinase % inhibition […]
(§4) aValues are the mean ± SD of one measurement in duplicates; bKinases harboring a Cysteine isostructural to Cys797 […]
(§5) (1 picture or pasted object on this page, not shown here)

BTK = BTK (Homo sapiens, UniProt Q06187); assay: SelectScreen kinase profiling, BTK; type: biochemical; details: mean ± SD of one measurement in duplicates
Experimental: as §1, §2, §3, §4, §5

Her2 = Her2 (Homo sapiens, UniProt P04626); assay: SelectScreen kinase profiling, Her2; type: biochemical; details: mean ± SD of one measurement in duplicates
Experimental: as §1, §2, §3, §4, §5

[2] = Microsomal stability (phase I), human; type: in vitro ADME; details: human liver microsomes, up to 50 minutes, 37 °C
Experimental: Microsomal stability (phase I) assay.
Metabolic stability under oxidative conditions was measured in liver microsomes from different
time up to 50 minutes (HLM) or 60 minutes (MLM) at 37 °C. Based on the compound half-life t1/2,
the in vitro intrinsic clearance CLint was calculated. […]

Plasma stability, mouse = type: in vitro ADME; details: 5 µM, 1 h, 37 °C

Chain of Her2 (P04626 23-1255): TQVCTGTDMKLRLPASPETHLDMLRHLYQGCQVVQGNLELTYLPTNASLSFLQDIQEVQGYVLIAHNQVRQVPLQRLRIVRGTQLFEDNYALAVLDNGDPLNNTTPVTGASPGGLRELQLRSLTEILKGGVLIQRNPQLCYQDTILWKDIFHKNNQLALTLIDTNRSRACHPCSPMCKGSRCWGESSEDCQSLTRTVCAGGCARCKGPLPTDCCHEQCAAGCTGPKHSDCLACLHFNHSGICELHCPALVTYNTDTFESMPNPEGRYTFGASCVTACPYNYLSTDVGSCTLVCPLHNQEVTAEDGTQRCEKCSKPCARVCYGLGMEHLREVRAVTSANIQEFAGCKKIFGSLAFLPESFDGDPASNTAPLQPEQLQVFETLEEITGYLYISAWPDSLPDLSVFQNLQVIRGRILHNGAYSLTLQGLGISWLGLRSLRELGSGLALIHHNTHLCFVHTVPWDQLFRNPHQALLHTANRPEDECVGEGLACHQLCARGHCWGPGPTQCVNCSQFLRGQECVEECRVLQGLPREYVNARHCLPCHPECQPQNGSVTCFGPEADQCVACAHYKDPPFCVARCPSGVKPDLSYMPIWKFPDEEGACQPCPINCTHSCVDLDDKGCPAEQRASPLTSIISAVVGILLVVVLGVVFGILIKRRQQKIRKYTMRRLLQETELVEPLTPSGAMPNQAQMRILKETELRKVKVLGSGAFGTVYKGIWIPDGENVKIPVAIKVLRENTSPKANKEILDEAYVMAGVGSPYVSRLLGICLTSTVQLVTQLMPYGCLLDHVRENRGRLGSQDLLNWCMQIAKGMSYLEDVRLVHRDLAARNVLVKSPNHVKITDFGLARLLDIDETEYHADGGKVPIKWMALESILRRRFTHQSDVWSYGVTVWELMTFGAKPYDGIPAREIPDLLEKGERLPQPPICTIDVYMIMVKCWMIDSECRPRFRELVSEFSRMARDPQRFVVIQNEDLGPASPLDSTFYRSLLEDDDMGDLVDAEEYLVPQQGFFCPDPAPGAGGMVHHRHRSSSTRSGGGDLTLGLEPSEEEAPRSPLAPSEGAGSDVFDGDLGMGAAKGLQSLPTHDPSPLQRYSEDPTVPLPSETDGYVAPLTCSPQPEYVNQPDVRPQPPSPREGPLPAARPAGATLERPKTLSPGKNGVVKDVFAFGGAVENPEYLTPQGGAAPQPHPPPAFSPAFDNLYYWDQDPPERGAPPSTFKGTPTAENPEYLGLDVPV
Chain of BLK (P51451 whole entry): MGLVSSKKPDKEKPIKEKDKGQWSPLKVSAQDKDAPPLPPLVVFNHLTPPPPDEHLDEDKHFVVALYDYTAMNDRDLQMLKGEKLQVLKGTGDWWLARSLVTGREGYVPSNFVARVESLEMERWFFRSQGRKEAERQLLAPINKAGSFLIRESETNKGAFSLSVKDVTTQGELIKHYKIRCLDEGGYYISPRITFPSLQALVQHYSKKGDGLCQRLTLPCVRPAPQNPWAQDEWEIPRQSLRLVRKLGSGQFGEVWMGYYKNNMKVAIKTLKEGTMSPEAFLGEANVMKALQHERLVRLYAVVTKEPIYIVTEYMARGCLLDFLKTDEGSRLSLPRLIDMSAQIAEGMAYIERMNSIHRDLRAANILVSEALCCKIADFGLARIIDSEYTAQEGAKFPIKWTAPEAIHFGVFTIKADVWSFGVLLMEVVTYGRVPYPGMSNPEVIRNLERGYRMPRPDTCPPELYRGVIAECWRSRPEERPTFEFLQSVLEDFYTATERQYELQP
Chain of BTK (Q06187 whole entry): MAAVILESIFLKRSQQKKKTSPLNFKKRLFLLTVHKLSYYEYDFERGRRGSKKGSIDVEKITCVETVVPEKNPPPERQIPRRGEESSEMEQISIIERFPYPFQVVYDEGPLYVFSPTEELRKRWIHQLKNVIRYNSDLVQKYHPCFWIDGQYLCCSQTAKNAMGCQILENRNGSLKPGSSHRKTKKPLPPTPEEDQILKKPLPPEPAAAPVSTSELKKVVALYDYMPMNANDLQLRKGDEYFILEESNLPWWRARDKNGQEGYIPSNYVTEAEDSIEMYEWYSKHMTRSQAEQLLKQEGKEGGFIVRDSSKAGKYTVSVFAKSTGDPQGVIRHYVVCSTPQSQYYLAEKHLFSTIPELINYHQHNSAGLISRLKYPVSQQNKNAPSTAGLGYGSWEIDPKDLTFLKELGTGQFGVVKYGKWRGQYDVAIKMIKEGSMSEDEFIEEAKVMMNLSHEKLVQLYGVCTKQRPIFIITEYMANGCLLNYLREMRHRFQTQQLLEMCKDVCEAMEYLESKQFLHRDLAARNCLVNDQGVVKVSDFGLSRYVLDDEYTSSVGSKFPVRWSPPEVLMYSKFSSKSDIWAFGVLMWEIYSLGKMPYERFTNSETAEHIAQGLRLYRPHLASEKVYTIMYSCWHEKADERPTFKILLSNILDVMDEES

Row | inhibition at 1 µM (BLK) [%] | inhibition at 1 µM (BTK) [%] | inhibition at 1 µM (Her2) [%] | microsomal CLint at 3 µM [2] [µL/min/mg] | Plasma stability (Plasma stability, mouse) [%remain] | Compound | concentration at which phosphorylation of EGFR and downstream proteins was reduced/inhibited [1]
1 | 99 ± 1 | 96 ± 1 | 82 ± 6 |  |  | C=CC(=O)Nc1cccc(-c2c(-c3ccc(CN4CCN(C)CC4)cc3)[nH]c3ncnc(OC)c23)c1 [Compound 17a] | around 100 nM
2 |  |  |  | 6.7 | 100 | C=CC(=O)Nc1cccc(-c2c(-c3ccc(N4CCN(C)CC4)cc3)[nH]c3ncnc(OCC(C)C)c23)c1 [Compound 19h] | 
